The record followed here is PubChem BioAssay AID1963597 (National Center for Advancing Translational Sciences (NCATS), 2024).

Molecules are shown by their SMILES.

The data set concerns human liver microsomes, metabolic stability half-life. In words: NCATS Human Liver Microsomal (HLM) Stability Profiling. The settings on record: higher = more stable; screened at 1 µM (by protocol). The source says: Assay submitter (PI): Dr. Pranav Shah
NIH Center for Advancing Translational Sciences
Pharmacokinetic issues were the leading cause of drug attrition, accounting for approximately 40% of all cases before the turn of the century. To this end, several high-throughput in vitro assays like microsomal stability have been developed to evaluate the pharmacokinetic profiles of compounds in early stages of drug discovery. At NCATS, a single-point rat liver microsomal (RLM) stability assay is used as a Tier I assay, while human liver microsomal (HLM) stability is employed as a Tier II assay. While it is beneficial to have compound libraries screened for HLM stability, the increasing magnitude of hits routinely generated, and the time- and re-source-intensive nature of the assay makes it important to find alternatives. One strategy is to rely on in silico models that have been developed using data generated from these assays. Herein, we describe the development of an HLM stability prediction model using our in-house dataset of ~7,000 compounds, employing both traditional and advanced machine learning methods. Additionally, the strong correlation between our RLM and HLM data was further reinforced by the fact that our HLM model performance improved after adding RLM stability predictions as an input descriptor. […] The best model along with a subset of our dataset has been made publicly accessible on the NCATS@ADME website for the benefit of the greater drug discovery community.
Microsomal Stability Assay
The substrate depletion method, also called the in vitro t1/2 method was used to analyze test compounds. Incubation and liquid handling were carried out using a previously described method (Shah et al., 2016). Briefly, each reaction mixture (110 µL) consisted of a test article (1 µM), human liver microsomes (0.5 mg/mL), and NADPH regenerating system in phosphate buffer at pH 7.4. Samples were incubated in 384-well plates at 37 degrees C for 0, 5, 10, 15, 30 and 60 min. At each time point, 10 µL of the incubation mixture was aspirated into another 384-well plate which contained cold acetonitrile (ACN) with internal standard (albendazole). All plates were centrifuged at 3000 rpm for 20 min at 4 degrees C, and the supernatants were transferred to a 384-well injection plate. Sample quantification and analysis was performed using a previously described method (Shah et al., 2016, Siramshetty et al., 2020).
1: Shah, P. et al. An Automated High-Throughput Metabolic Stability Assay Using an Integrated High-Resolution Accurate Mass Method and Automated Data Analysis Software. Drug Metab Dispos 44, 1653-1661 (2016).
2: Siramshetty et al. Retrospective assessment of rat liver microsomal stability at NCATS: data and QSAR models. Sci Rep 26;10(1):20713 (2020).
In general terms: Liver microsomes are vesicles of endoplasmic reticulum, rich in cytochrome P450 enzymes.

The term half-life denotes how long it takes for the measured level to halve.

`CC1=C(c2ccc(NC(=O)c3c(F)cccc3F)cc2)CN(c2nccs2)CC1` gave a half-life of 38.9 min. `CN(C)[S+](=O)([O-])c1ccc([S+](=O)([O-])N(Cc2ccccc2)Cc2ccccn2)cc1` had a half-life of 4.28 min.

`COc1cc2c(cc1OC)CN(C(=O)[C@@H](NCc1ccncc1)C(C)(C)C)CC2` gave a half-life of 2.24 min. In the case of `Cc1ccc(NC(=O)c2cccc(N(C)C)c2)cc1NC(=O)c1ccc(O)cc1`, the half-life worked out at 18.9 min. The value for `O=c1cc(-c2ccc(O)cc2)oc2cc(O)cc(O)c12` was 18.8 min; that for `COC(=O)[C@@H]1[C@H]2C[C@H]3c4[nH]c5ccccc5c4CCN3C[C@@H]2CC[C@@H]1O` was 83.9 min; that for `CC1(C#N)CCN(c2c(C(=O)N3CCC(S(C)(=O)=O)CC3)cnc3cc(F)c(F)cc23)CC1` was greater than 120 min. `C=C1C(=O)O[C@@H]2[C@H]3O[C@]3(C)CC/C=C(\C)CC[C@@H]12` yielded a half-life greater than 120 min.

`N#Cc1cc(-c2n[nH]c(-c3ccncc3)n2)ccn1` displayed a half-life of 90.6 min.

Regarding `CN(C)CC#CCCC(=O)C(O)(c1ccccc1)C1CCC1` (stereo unspecified), the half-life amounted to 102 min. `COc1ccc(N(C(=O)Nc2c(C)cccc2C)c2cc(Nc3ccc(N4CCN(C)CC4)cc3)ncn2)c(OC)c1` had a half-life of 17.1 min. The value for `CCOc1ccc(-n2c([C@@H](C)N(Cc3cccnc3)C(=O)Cc3ccc(OC(F)(F)F)cc3)nc3ncccc3c2=O)cc1` was 8.23 min. Molecule `Cc1cc(C)cc(NC(=O)Nc2cccs2)c1` displayed a half-life of 3.55 min. `CCOC(=O)Nc1ccc(NCc2ccc(F)cc2)cc1N` registered a half-life greater than 120 min. Molecule `CCC1(O)CC2c3cc(OC)c(OC)cc3CCN2CC1CC(C)C` (stereo unspecified) came in with a half-life greater than 120 min. Molecule `COC(=O)/C=C(\C)OP(=O)(OC)OC` registered a half-life of 19.9 min. Regarding `C1N2CN3CN1CN(C2)C3`, the half-life is 30.5 min.

`COc1ccc(C(=O)Oc2ccc(C(c3c(C)[nH][nH]c3=O)c3c(C)[nH][nH]c3=O)cc2)cc1` displayed a half-life of 1.55 min. Regarding `Clc1ccc(COC(Cn2ccnc2)c2ccc(Cl)cc2Cl)cc1` (stereo unspecified), the half-life is 89.8 min. The value for `Cc1cccc(N(C)C(=S)Oc2ccc3c(c2)CCC3)c1` was 1.94 min; that for `CCOCCn1c(C2CCN(CCc3ccc(C(C)(C)C(=O)O)cc3)CC2)nc2ccccc21` was greater than 120 min. In turn, `COc1ccc(Cn2c(SCC(=O)N3CCN(c4ccc(F)cc4)CC3)nc3ccccc32)cc1` returned a half-life of 2.2 min. On to `Cn1nc(C(C)(C)C)cc1C(=O)NC(Cc1cccc(Cl)c1)C(=O)NCC#N` (stereo unspecified), for which the half-life was found to be 67.4 min.

In the case of `O=C(c1ccc(F)cc1)N1CCC(C(=O)N2CCC(N3Cc4ccccc4C3=O)CC2)CC1`, the half-life is greater than 120 min. Turning to `COc1cccc(C(=O)Nc2nc(-c3nnn(-c4ccccc4C(F)(F)F)c3C)ns2)c1`, the half-life is greater than 120 min. `CCOC(=O)c1c(NC(=O)c2ccc(S(=O)(=O)N(C)C3CCCCC3)cc2)sc2c1CCN(C(C)C)C2` gave a half-life of 2.21 min. For the molecule `CNC(=O)c1cc(Oc2ccc(NC(=O)Nc3ccc(Cl)c(C(F)(F)F)c3)cc2)ccn1`, the half-life was greater than 120 min. The value for `O=C(CSc1nnc(-c2cccc(F)c2)c(-c2cccc(F)c2)n1)NC1CCCCC1` was 10.8 min; that for `CC1=C(C(=O)Nc2cccc(-c3cn[nH]c3)c2)C(c2ccccc2Cl)N=C(Nc2nc3ccccc3o2)N1` (stereo unspecified) was 49.1 min. On to `NC(=O)C1(N2CCCCC2)CCN(CCCC(=O)c2ccc(F)cc2)CC1`, for which the half-life amounted to 101 min. On to `CCOC(=O)c1cccnc1`, for which the half-life worked out at 9.43 min. Turning to `COc1ccc(C(CN(C)C)C2(O)CCCCC2)cc1` (stereo unspecified), the half-life is greater than 120 min. Molecule `CCCCS(=O)(=O)N[C@@H](Cc1ccc(OCCCCC2CCNCC2)cc1)C(=O)O` registered a half-life greater than 120 min.

`NC(=O)c1ccc(F)c2c1C[C@@H](N(C1CCC1)C1CCC1)CO2`: the half-life stood at 15 min.

In the case of `CC(C)CN1C(=O)c2cccn2CC1C(=O)N1CCN(C)CC1` (stereo unspecified), the half-life stood at 62.8 min. With `COc1ccc2cc(OCC3(C(=O)O)CN(C(=O)c4ccc(F)cc4)C3)ccc2c1`, the half-life was determined as 8.64 min.

Molecule `O=C(NCC1CCOCC1)c1cnc(Nc2ccc(Cl)cc2Cl)nc1C(F)(F)F` came in with a half-life of 38.1 min. In turn, `Cc1c(Cl)ccc2sc(N3CCN(C(=O)CS(=O)(=O)c4ccccc4)CC3)nc12` had a half-life of 61.2 min. Regarding `C#CCOC(C(=O)OCCN(C)C)(c1ccccc1)c1ccccc1`, the half-life came out at 43.7 min. For `CN[C@@H](C)[C@@H](O)c1ccccc1`, the half-life is greater than 120 min.

`C[C@]12CC[C@@H]3c4ccc(O)cc4CC[C@H]3[C@@H]1C[C@@H](O)[C@@H]2O` returned a half-life greater than 120 min. For `CCOCCCNC(=O)C(=O)Nc1c2c(nn1-c1ccc(OC)cc1)CSC2` the value was 42.3 min; for `O=C(Nc1cccnc1)N1CCC(Cc2cccc(Oc3ccc(C(F)(F)F)cn3)c2)CC1`, 33.9 min. The value for `Nc1nc2c(c(N3CCNCC3)n1)CCC1=C2[C@@H]2CCCC[C@@H]2O1` was greater than 120 min. Molecule `Cc1nnc(C(C)C)n1C1CC2CCC(C1)N2CCC(NC(=O)C1CCC(F)(F)CC1)c1ccccc1` (stereo unspecified) displayed a half-life greater than 120 min.

`COCCCNC(=O)C(=O)Nc1c2c(nn1-c1cccc(Cl)c1)CSC2` showed a half-life of 24.9 min.

Regarding `CCOC(=O)c1c(C)nn(-c2cccc([N+](=O)[O-])c2)c1C`, the half-life came to 2.08 min. `C=C1CC[C@@]2(O)[C@H]3Cc4ccc(O)c5c4[C@@]2(CCN3CC2CC2)[C@H]1O5` displayed a half-life greater than 120 min. For `CN(C)CC/C=C1\c2ccccc2Sc2ccc(Cl)cc21` the value was 24.3 min; for `CCOc1cc(=O)n2c(c1C(=O)Nc1ccc(C#N)cc1)CCCC2`, greater than 120 min; for `Cc1cn(C[C@H](N)C(=O)O)c(=O)n(Cc2ccsc2C(=O)O)c1=O`, 53.1 min. In turn, `COc1ccc(Nc2nnc(-c3ccc(C)c(S(=O)(=O)NCc4nc5ccccc5[nH]4)c3)c3ccccc23)cc1` registered a half-life of 5.8 min. `CCOC(=O)[C@H](CCc1ccccc1)N[C@H]1CS[C@H](c2cccs2)CN(CC(=O)O)C1=O` yielded a half-life of 6.54 min.

Molecule `CCc1nn(C)c(C(=O)NCc2ccc(Oc3ccc(C)cc3)cc2)c1Cl` yielded a half-life of 7.51 min. In turn, `Cc1cc(C(C)Nc2ccccc2)c2nc(N3CCOCC3)cc(=O)n2c1` (stereo unspecified) showed a half-life of 17.2 min. For `Cc1cnc(Nc2cccc(CN3CCOCC3)c2)nc1Nc1cccc(S(=O)(=O)NC(C)(C)C)c1` the value was 19.5 min; for `Cc1cccc(C)c1NC(=O)Nc1cccs1`, 80.6 min; for `O=C(CSc1nc2ccccc2n1Cc1cccc(Cl)c1)N1CCN(c2ccc(F)cc2)CC1`, 0.81 min. For `COc1cc(Nc2nc3ccccc3nc2NS(=O)(=O)c2ccc(NC(=O)c3ccc(C)c(OC)c3)cc2)cc(OC)c1` the value was greater than 120 min. The value for `NC1(c2ccc(-c3nc4ccn5c(=O)[nH]nc5c4cc3-c3ccccc3)cc2)CCC1` was 83 min. For `Oc1cccc(C2NC(=S)Nc3cccc(F)c32)c1` (stereo unspecified), the half-life was greater than 120 min.

`CC1CC(C)C(=O)C(C(O)CC2CC(=O)NC(=O)C2)C1` (stereo unspecified) gave a half-life greater than 120 min. The value for `Cc1cc(=O)oc2cc(O)ccc12` was 60.6 min; that for `N#Cc1cccc(CN2CCOC[C@H]2c2ncc(-c3ccc(F)cc3)[nH]2)c1` was 3.38 min. In the case of `CC(C)(C)c1coc([C@@H]2COCCN2Cc2ccc(C(=O)O)cc2)n1`, the half-life was 80.9 min. For `COc1cc(C(=O)NC2CCCNC2)cc(OC)c1OC` (stereo unspecified) the value was greater than 120 min; for `CNC(=O)c1ccccc1Nc1nc(Nc2ccc(N3CCOCC3)cc2OC)ncc1Cl`, 34.9 min. The molecule `O=C(O)Cc1sc(-c2ccccc2)nc1-c1ccc(Cl)cc1` yielded a half-life of 2.82 min. In turn, `CC1(C)CCC(CN2CCN(c3ccc(C(=O)NS(=O)(=O)c4ccc(NCC5CCOCC5)c([N+](=O)[O-])c4)c(Oc4cnc5[nH]ccc5c4)c3)CC2)=C(c2ccc(Cl)cc2)C1` had a half-life of 32.8 min. In turn, `COc1cc(C(c2c(C)[nH][nH]c2=O)c2c(C)[nH][nH]c2=O)ccc1OC(=O)c1cccc(C)c1` gave a half-life of 2.21 min. For `C1COC(NC(C2CC2)C2CC2)=N1` the value was greater than 120 min; for `CCN(CC)C(=O)SCc1ccc(Cl)cc1`, 2.59 min. For `Cc1cccc(C)c1OCC(C)N` (stereo unspecified), the half-life was 114 min. Regarding `NC(=O)[C@H]1CCS[C@@H]2C[C@]3(CCCN3C(=O)Cc3ccc(NC(=O)COc4ccc(Cl)cc4Cl)cc3)C(=O)N12`, the half-life came out at 7.68 min. `Cc1nn2c(c1-c1ccccc1Oc1ccccc1)N(Cc1ccc(C(=O)O)cc1)CCC2` showed a half-life of 6.19 min.

Molecule `CC1=C(CC(=O)O)c2cc(F)ccc2/C1=C\c1ccc(S(C)=O)cc1` (stereo unspecified) displayed a half-life greater than 120 min.
